≈ marks a conversion by molar mass, not a printed value. Where “and” joins values, the source holds several entries; their conditions need not be identical. Identical values can stand only once. Like-named read-outs stand apart in the source and are kept apart here.
How the values were obtained:
IL-10 production = assay: ELISA of TCR-induced IL-10 production by APBTs; format: cell-based, human
Procedure: (§1) The cells were then stimulated with plate-bound 2 μg/ml of anti-CD3 (Biolegend) for 24 hours. Protein concentrations of IL-2, IFN-γ, IL-10, and TNF-α in the media supernatants were measured by standard TMB ELISA.
(§2) Cells were plated on 2 μg/ml anti-CD3 coated plates for 24 hours. Extracellular cytokine production for (A) IFN-γ, (B) IL-2, (C) IL-10, or (D) TNFα was measured by ELISA in 3 independent experiments with different human donors.

[1] = system: AKT phosphorylation at threonine 308 and serine 473; assay: TCR-induced AKT phosphorylation by immunoblotting in APBTs; format: cell-based, human
Procedure: The cells were then incubated on ice with 2 μg/ml anti-CD3 for 30 minutes. […] Cells were then lysed with 2X sample buffer, heated to 95°C, and sonicated.
Cell lysates were separated by polyacrylamide gel electrophoresis and transferred to PVDF. The membranes were blocked in 0.5X SEA BLOCK blocking buffer diluted in PBS. Primary antibodies were incubated overnight at 4°C. Secondary antibodies were incubated with the membrane for 30 minutes at room temperature and then imaged using Licor Odyssey (Lincoln, NE, USA). At least four independent replicates with different human donors were performed for each experiment. Immunoblot band intensity was quantified using Odyssey’s v3.0 software with the intensity of the phospho-specific antibody normalized to the intensity of the GAPDH antibody. To minimize variability between human donors, band intensities were further normalized to maximal band intensity of ethanol vehicle control. The following antibodies were used for immunoblotting: AKT pThr 308 (Cell Signaling), AKT pS473 (Invitrogen), GAPDH (Meridian Life Sciences), and IRDye 800CW or IRDye680-conjugated secondary antibodies (Thermo Scientific).
Cells were stimulated by crosslinking 2 μg/ml of anti-CD3 for various times. Phosphorylation of AKT at threonine 308 and serine 473 were assessed by immunoblotting.

IL-2 production = assay: ELISA of TCR-induced IL-2 production by APBTs; format: cell-based, human
Procedure: as §1
(§3) Cells were plated on 2 μg/ml anti-CD3 coated plates for 24 hours. Extracellular cytokine production for (A) IFN-γ, (B) IL-2, (C) IL-10, or (D) TNFα was measured by ELISA in 3 independent experiments with different human donors. To statistically confirm that GML is suppressing cytokine production without serum, Student t’s test was done by comparing EtOH treated groups with GML treated groups under the same serum free environment, indicated by the black bars, with # denoting p<0.05.

[2] = biological target: T1, mouse serum albumin (MSA) (Mus musculus, UniProt P07724); assay: Isothermal titration calorimetry with mouse serum albumin; format: binding
T1 construct: purchased Sigma Aldrich
T1 sequence (P07724 25-608): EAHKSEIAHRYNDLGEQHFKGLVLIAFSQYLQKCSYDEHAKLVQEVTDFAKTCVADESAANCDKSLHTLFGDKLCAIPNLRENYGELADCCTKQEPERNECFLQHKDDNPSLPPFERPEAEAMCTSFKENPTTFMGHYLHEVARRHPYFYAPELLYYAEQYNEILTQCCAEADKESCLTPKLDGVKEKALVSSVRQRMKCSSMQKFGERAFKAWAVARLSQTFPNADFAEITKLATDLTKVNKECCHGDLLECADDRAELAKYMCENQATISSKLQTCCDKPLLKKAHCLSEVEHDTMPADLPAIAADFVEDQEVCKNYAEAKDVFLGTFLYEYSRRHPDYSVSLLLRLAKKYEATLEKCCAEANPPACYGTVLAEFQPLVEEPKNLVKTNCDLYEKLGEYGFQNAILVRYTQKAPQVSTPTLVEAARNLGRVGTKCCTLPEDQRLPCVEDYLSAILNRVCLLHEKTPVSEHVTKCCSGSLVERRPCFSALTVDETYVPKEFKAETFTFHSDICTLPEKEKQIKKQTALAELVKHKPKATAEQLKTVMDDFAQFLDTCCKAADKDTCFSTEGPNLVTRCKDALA
Procedure: (§4) Supplementary file pone.0165083.s001.pdf: S1 Fig ITC curves of GML with various mammalian albumins. 150μM of GML was injected incrementally into the sample chamber containing 5μM of mammalian albumins. […] (PDF) Click here for additional data file.

LAT pY226 microclusters = assay: TIRF microscopy of LAT microcluster formation in APBTs; format: cell-based, human
Procedure: (§5) APBTs were stimulated in the presence of 0.1% ethanol control or 10 μg/ml GML with plate-bound anti-CD3 on glass coverslips, fixed with 4% paraformaldehyde, permeabilized with 0.25% Triton-X, and stained as described below. To detect microcluster formation of TCR signaling proteins, antibodies specific for LAT pY226 (BD Pharmingen), PLC-γ pY783 (Cell Signaling, and total AKT (Cell signaling) were incubated with fixed and permeabilized cells overnight for 4°C. Subsequently, conjugated secondary antibodies Dylight Goat anti-rabbit IgG and DyLight 568 Goat anti-rabbit IgG (Biolegend) as well as Alexa Fluor 488 goat anti-mouse IgG1 (Thermo Fisher) were incubated with the cells at room temperature for 2 hours. All images were captured by the Leica AM TIRF MC system using 100x magnification oil immersion objective lens at room temperature at the University of Iowa Central Microscopy Research Facility.
(§6) TIRF microscopy images were processed and analyzed using ImageJ. Quantification of membrane clustering was done by measuring mean pixel intensity in the […] of cells for 60 cells total from at least 3 independent experiments. Similar quantification methods have been used in other published reports.
(§7) (A). […] Pixel intensities of median axis of each cell in images obtained in (A) were quantified and averaged using ImageJ. […]

[3] = system: PLC-γ1 pY783 microclusters; assay: TIRF microscopy of PLC-γ1 microcluster formation in APBTs; format: cell-based, human
Procedure: as §5, §6, §7

[4] = cited from earlier work
[5] = biological target: human serum albumin (HSA) (Homo sapiens, UniProt P02768); assay: Isothermal titration calorimetry with human serum albumin; conditions: for ΔH: room temperature, pH 7.4
Chain of human serum albumin (HSA) (P02768 25-609): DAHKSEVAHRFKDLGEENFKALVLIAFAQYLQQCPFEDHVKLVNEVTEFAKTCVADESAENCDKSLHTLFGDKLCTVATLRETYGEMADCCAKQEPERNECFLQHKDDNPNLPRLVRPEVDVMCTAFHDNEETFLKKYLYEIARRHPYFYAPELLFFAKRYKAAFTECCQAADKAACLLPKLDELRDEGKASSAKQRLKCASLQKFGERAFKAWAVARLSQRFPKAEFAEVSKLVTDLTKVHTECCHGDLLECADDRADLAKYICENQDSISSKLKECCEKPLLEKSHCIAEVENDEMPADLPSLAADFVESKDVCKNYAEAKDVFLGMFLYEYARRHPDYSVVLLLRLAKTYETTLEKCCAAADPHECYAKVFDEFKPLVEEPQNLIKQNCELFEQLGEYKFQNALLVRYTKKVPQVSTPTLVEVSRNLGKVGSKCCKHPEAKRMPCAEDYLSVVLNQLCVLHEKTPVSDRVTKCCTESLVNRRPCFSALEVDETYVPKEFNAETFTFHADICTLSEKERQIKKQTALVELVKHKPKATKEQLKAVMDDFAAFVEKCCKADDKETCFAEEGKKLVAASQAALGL
Procedure: (§8) All samples were degassed, and ITC was performed at room temperature as previously described using MicroCal VP-ITC calorimeter. […] The data were analyzed using a single-site binding model provided in the ITC analysis software package. […] The values for ΔH, Kd and stoichiometry averaged ± standard deviation. […] The values for stoichiometry and binding affinity were derived from the ITC experiments.
150 μM of ethanol solubilized GML was placed in the syringe and injected into the sample chamber twenty one times with 180 seconds interval between injections.

HSA = system: HSA
Procedure: as §8
While the presence of other ligands would increase the proportion of free floating GML unbound to albumin, we assumed there were no other albumin ligands present in the system to simplify our calculations.
(PDF) Click here for additional data file.

[6] = biological target: T2, rabbit serum albumin (RSA) (Oryctolagus cuniculus, UniProt P49065); assay: Isothermal titration calorimetry with rabbit serum albumin; format: binding
T2 construct: purchased Sigma Aldrich
T2 sequence (P49065 25-608): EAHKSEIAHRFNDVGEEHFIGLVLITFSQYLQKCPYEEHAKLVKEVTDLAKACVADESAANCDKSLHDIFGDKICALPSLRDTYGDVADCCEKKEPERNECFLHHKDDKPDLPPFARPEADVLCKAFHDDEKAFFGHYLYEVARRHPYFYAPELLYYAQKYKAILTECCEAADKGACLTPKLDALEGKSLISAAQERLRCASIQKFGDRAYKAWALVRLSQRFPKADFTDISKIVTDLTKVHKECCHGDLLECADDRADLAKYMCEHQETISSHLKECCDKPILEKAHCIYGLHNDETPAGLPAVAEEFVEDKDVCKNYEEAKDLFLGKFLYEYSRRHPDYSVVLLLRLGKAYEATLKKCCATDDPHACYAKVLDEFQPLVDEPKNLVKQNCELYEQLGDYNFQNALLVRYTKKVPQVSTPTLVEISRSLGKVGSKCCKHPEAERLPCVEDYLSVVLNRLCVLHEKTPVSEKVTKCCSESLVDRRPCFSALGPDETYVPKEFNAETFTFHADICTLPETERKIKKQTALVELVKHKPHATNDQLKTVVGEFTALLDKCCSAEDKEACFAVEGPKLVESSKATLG
Procedure: as §4

pig serum albumin (PSA) = biological target: T3, pig serum albumin (PSA) (Sus scrofa, UniProt P08835); assay: Isothermal titration calorimetry with pig serum albumin; format: binding
T3 construct: purchased Sigma Aldrich
T3 sequence (P08835 25-607): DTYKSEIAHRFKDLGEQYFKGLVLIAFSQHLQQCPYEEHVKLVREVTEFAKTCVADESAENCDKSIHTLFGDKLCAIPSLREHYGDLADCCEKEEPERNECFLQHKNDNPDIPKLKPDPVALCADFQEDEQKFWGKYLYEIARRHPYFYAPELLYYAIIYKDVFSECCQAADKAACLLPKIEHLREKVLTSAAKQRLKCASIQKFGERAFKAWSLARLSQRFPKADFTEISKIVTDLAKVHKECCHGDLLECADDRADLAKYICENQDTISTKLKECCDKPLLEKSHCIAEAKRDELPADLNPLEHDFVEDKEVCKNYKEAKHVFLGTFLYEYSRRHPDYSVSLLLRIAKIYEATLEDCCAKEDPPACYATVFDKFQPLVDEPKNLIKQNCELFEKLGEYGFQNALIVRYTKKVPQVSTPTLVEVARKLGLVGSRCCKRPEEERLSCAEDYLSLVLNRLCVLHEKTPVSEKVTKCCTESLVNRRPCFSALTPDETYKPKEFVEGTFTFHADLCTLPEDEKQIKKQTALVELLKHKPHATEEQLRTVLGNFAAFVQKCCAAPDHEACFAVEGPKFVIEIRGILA
Procedure: as §4

TNF-α production = assay: ELISA of TCR-induced TNF-α production by APBTs; format: cell-based, human
Procedure: as §1, §3

IFN-γ production = assay: ELISA of TCR-induced IFN-γ production by APBTs; format: cell-based, human
Procedure: as §1, §2

[7] = biological target: T4, bovine serum albumin (BSA) (Bos taurus, UniProt P02769); assay: Isothermal titration calorimetry with bovine serum albumin; format: binding
T4 construct: purchased Sigma Aldrich
T4 sequence (P02769 25-607): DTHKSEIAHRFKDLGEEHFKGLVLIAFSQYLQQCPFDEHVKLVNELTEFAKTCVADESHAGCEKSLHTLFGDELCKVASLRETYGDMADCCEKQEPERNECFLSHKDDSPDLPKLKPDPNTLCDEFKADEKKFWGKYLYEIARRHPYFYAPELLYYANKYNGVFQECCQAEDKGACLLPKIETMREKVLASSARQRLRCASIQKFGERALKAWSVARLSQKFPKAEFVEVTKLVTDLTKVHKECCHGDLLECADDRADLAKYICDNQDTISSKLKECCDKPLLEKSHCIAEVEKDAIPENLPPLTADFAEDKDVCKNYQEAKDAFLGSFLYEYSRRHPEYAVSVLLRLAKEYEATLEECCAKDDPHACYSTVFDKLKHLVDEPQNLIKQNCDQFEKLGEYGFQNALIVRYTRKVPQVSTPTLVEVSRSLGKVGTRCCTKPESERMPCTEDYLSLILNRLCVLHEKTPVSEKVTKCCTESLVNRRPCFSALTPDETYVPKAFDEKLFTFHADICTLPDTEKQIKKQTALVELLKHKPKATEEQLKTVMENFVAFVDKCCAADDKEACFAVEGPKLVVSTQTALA
Procedure: as §4

total AKT microclusters = assay: TIRF microscopy of AKT microcluster formation in APBTs; format: cell-based, human
Procedure: as §5, §6, §7

[8] = GML doses 10 μg/ml or greater, absence of serum albumin, anti-CD3 24 hours
[9] = 10 μg/ml GML, serum free media, significant at 5 and 15 minutes post stimulation
[10] = ITC, single-site model, 5 μM albumin, 150 μM ligand

CCCCCCCCCCCC(=O)OCC(O)CO (stereo not shown) [GML, Glycerol monolaurate]
IL-10 production vs control APBTs (IL-10 production; 10 μg/ml GML, all doses of HSA): significantly increased | IL-10 production vs GML in serum free media (IL-10 production; 20 μg/ml GML, all concentrations of HSA tested): did not restore | IL-10 production vs ethanol control (IL-10 production; [8]): significantly reduced | AKT T308 phosphorylation vs GML alone ([1]; 10 μg/ml GML in 1% HSA, 5 and 15 minutes post stimulation): significantly increased | AKT S473 phosphorylation vs GML alone ([1]; 10 μg/ml GML in 1% HSA, 15 minutes post stimulation): significantly increased | phosphorylation of both AKT residues (T308, S473) post stimulation vs GML treated cells ([1]; 10 μg/ml GML in 1% HSA, below levels in ethanol control): modest increase | AKT S473 phosphorylation vs ethanol control [1, 9]: drastically suppressed | AKT T308 phosphorylation vs ethanol control [1, 9]: drastically suppressed | IL-2 production vs GML in serum free media (IL-2 production; 10 μg/ml GML, 2% and 1% HSA): significantly increased | IL-2 production vs GML in serum free conditions (IL-2 production; 20 μg/ml GML, all HSA doses): did not have significantly increased | IL-2 production vs ethanol control (IL-2 production; [8]): significantly reduced | Kd [2]: 6.3 ± 2.7 µM | ΔH ([2]; ITC, single-site model, MSA): -4.9 ± 1.1 kcal/mol | LAT microcluster formation in GML treated cells (LAT pY226 microclusters; 10 μg/ml GML in 1% HSA, to levels similar to ethanol and HSA controls): significantly increased | LAT clustering at the membrane (LAT pY226 microclusters; 10 μg/ml GML, serum free media): drastically decreased | PLC-γ1 clustering ([3]; 10 μg/ml GML alone): inhibits | PLC-γ1 clustering in GML treated cells ([3]; 10 μg/ml GML with 1% HSA): relieves this inhibition | aqueous solubility cap ([4]; aqueous, under 37°C, stated as a fact, no reference printed for it): 100 µg/mL (≈ 364 µM) | solubility in gel formulations ([4]; topical GML in gel formulations ref [3],[19]): up to 50 mg/ml | ΔH [5, 10]: -3.0 ± 1.1 kcal/mol | Kd ([5]; Kd, ITC, single-site model, 5 μM albumin, 150 μM ligand): ~1.4 µM and 1.4 µM | GML molecules bound to HSA (HSA; 10 and 20 μg/ml GML, all HSA concentrations, no other ligands assumed): > 90% | GML bound to albumin (HSA; low-albumin sites (urine, vaginal secretions, CSF etc.), GML doses less than 20 μg/ml): mostly bound | albumin bound to GML (HSA; lymphatic fluid, albumin 40% to 90% of the serum concentration): > 99% | GML molecules bound to albumin (HSA; plasma albumin 35 to 50 g/L, concentrations where GML is soluble, Kd 1.4 μM): > 99% | concentration of GML-HSA complexes relative to free GML molecules (HSA; skin wound exudate albumin 10 to 30 g/L, GML doses between 500 to 5000 μg/ml): within one order of magnitude | GML molecules bound to HSA (HSA; skin wound exudate albumin 10 to 30 g/L, GML doses greater than 5000 μg/ml): < 2% | GML bound to HSA (HSA; skin wound exudate albumin 10 to 30 g/L, GML doses less than 500 μg/ml): > 90% | Kd [6]: 5.4 ± 1.3 µM | ΔH ([6]; ITC, single-site model, RSA): -4.5 ± 0.61 kcal/mol | Kd (pig serum albumin (PSA)): 4.5 ± 1.6 µM | ΔH (pig serum albumin (PSA); ITC, single-site model, PSA): -2.0 ± 0.63 kcal/mol | TNF-α production vs GML in serum free media (TNF-α production; 10 and 20 μg/ml GML, all concentrations of HSA): significantly increased | TNFα production vs ethanol control (TNF-α production; [8]): significantly reduced | IFN-γ production vs GML treatment alone (IFN-γ production; 1% or 0.2% HSA, 10 μg/ml GML): significant restoration | IFN-γ production vs GML treatment alone (IFN-γ production; 2% HSA, both GML doses (10 and 20 μg/ml)): significantly restored | IFNγ production vs ethanol control (IFN-γ production; [8]): significantly reduced | Kd [7]: 2.2 ± 1.1 µM | ΔH ([7]; ITC, single-site model, BSA): -4.5 ± 0.77 kcal/mol | AKT clustering (total AKT microclusters; 10 μg/ml GML alone): inhibits | AKT clustering in GML treated cells (total AKT microclusters; 10 μg/ml GML with 1% HSA): relieves this inhibition

OCC(O)CO [Glycerol, glycerol]
Kd [5]: > 50 µM | binding reaction with HSA ([5]; ITC, 5 μM HSA, 150 μM glycerol): did not have measurable binding reaction

CCCCCCCCCCCC(=O)O [LA, Lauric acid]
Kd [5, 10]: 4.9 ± 1.1 µM | ΔH [5, 10]: -24 kcal/mol and -24 ± 0.63 kcal/mol | n (stoichiometry) ([5]; ITC, single-site model, ligand:HSA): 1.1 ± 0.4
